Test results published in patent US20230322767A1, “ARYL SUBSTITUTED PYRROLO-PYRIDINONES AND THERAPEUTIC USES THEREOF” (Bayer Aktiengesellschaft, priority 2020, published 2023).

Experiments:
Format in all cases: biochemical
CSNK1A1 = CSNK1A1 (Homo sapiens (Human), UniProt P48729); experiment: CSNK1A1 Assay 2 (ADP-Glo, 1 μM ATP); details: median, read-out: CSNK1A1 Assay 2 IC50 [mol/l] (median)
Summary of the method: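 ADP-Glo luminescence, taken as ADP formed, reports activity against biotinylated phospho-peptide substrate biotin-Ahx-KRRRAL-pS-VASLPGL at 1 μM ATP.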

CSNK1D = CSNK1D (Homo sapiens (Human), UniProt P48730); experiment: CSNK1D Assay (ADP-Glo, 1 μM ATP); details: median, read-out: CSNK1D IC50 [mol/l] (median)
CSNK1D, sequence (P48730 whole entry): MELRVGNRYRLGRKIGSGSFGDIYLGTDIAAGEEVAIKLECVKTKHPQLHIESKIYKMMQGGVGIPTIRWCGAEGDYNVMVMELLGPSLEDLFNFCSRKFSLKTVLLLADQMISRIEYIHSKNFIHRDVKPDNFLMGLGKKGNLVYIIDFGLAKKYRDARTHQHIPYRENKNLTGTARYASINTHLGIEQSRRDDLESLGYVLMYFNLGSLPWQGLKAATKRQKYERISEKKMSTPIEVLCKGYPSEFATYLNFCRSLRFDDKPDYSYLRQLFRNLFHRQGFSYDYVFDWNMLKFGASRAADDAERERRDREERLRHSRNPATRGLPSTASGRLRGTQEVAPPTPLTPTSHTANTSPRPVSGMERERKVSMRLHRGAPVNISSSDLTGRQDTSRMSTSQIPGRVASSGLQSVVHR
Summary of the method: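 Enzyme preincubated with compound 15 min at 22° C in 50 mM HEPES pH 7.5 buffer with 10 mM MgCl2, 1 mM DTT; kinase reaction run at 1 μM ATP with biotinylated peptide substrate. ADP formed was detected by ADP-Glo luminescence as the measure of activity.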

[1] = target: wild-type Epidermal Growth Factor Receptor (EGFR) (Homo sapiens (Human), UniProt P00533); experiment: WT-EGFR Kinase Assay (TR-FRET, 2 mM ATP); details: EGFR Wildtyp 2 mM ATP IC50 [mol/l] (median), median or individual measurements
wild-type Epidermal Growth Factor Receptor (EGFR), sequence (P00533 669-1210): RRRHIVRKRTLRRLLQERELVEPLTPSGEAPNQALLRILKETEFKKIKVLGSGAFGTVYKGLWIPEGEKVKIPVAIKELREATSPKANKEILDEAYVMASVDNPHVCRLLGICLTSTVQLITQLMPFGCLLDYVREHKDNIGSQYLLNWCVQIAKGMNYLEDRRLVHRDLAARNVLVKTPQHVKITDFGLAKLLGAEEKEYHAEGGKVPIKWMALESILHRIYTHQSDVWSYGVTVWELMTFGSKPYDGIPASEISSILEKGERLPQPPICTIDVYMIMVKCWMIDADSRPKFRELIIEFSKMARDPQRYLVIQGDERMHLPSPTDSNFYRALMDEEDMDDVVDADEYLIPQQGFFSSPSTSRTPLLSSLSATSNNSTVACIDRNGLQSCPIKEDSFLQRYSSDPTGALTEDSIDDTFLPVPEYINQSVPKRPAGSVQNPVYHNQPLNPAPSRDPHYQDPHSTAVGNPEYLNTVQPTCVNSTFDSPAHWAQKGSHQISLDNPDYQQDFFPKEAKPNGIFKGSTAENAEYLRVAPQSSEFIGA
Summary of the method: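 TR-FRET read-out of biotinylated peptide phosphorylation, taken as the 665/622 nm ratio after EDTA stop and 1 h detection at 22° C. Kinase: GST fusion of human EGFR aa R669–A1210, given a 15 min compound pre-binding step; reaction run at 2 mM ATP.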

CSNK1A1, sequence (P48729 whole entry): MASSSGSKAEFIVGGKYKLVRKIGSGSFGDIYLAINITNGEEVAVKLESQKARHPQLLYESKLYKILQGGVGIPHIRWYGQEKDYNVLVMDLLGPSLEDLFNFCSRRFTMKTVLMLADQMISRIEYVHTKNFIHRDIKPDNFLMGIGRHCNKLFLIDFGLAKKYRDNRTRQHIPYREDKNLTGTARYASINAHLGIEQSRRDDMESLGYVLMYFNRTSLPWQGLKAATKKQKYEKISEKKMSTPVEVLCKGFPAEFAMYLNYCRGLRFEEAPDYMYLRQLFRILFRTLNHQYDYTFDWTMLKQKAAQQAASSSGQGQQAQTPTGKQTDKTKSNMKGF

Compound | IC50 (CSNK1A1) | IC50 (CSNK1D) | IC50 [1]
Cn1cc(CC2CC2)c2[nH]c(-c3ccnc(NC(=O)C(CC(F)F)c4ccc(F)cc4)c3)c(-c3ccc(F)cc3)c2c1=O (racemic) [Example 65, N-{4-[7-(cyclopropylmethyl)-3-(4-fluorophenyl)-5-methyl-4-oxo-4,5-dihydro-1H-pyrrolo[3,2-c]pyridin-2-yl]pyridin-2-yl}-4,4-difluoro-2-(4-fluorophenyl)butanamide] | 11 nM | 6.6 nM | > 20000 nM
CN1CCc2[nH]c(-c3ccnc(NC(=O)C(CC(F)F)c4ccc(F)cc4)c3)c(-c3ccc(F)cc3F)c2C1=O (racemic) [Example 66, N-{4-[3-(2,4-difluorophenyl)-5-methyl-4-oxo-4,5,6,7-tetrahydro-1H-pyrrolo[3,2-c]pyridin-2-yl]pyridin-2-yl}-4,4-difluoro-2-(4-fluorophenyl)butanamide] | 4.4 nM | 3.2 nM | > 20000 nM
CC(C(=O)Nc1cc(-c2[nH]c3c(c2-c2ccc(F)cc2F)C(=O)N(C)CC3)ccn1)c1ccc(F)cc1 (racemic) [Example 69, N-{4-[3-(2,4-difluorophenyl)-5-methyl-4-oxo-4,5,6,7-tetrahydro-1H-pyrrolo[3,2-c]pyridin-2-yl]pyridin-2-yl}-2-(4-fluorophenyl)propanamide] | 3.1 nM | 2.8 nM | > 20000 nM
CC(C(=O)Nc1cc(-c2[nH]c3c(c2-c2ccccc2)C(=O)NCC3)ccn1)c1ccc(F)cc1 (racemic) [Example 74, 2-(4-fluorophenyl)-N-[4-(4-oxo-3-phenyl-4,5,6,7-tetrahydro-1H-pyrrolo[3,2-c]pyridin-2-yl)pyridin-2-yl]propanamide] | 1.6 nM | 3 nM | > 20000 nM
O=C1NCCc2[nH]c(-c3ccnc(NC(=O)C(CC(F)F)c4ccc(F)cc4)c3)c(-c3ccccc3)c21 (racemic) [Example 75, 4,4-difluoro-2-(4-fluorophenyl)-N-[4-(4-oxo-3-phenyl-4,5,6,7-tetrahydro-1H-pyrrolo[3,2-c]pyridin-2-yl)pyridin-2-yl]butanamide] | 2.7 nM | 4.5 nM | > 20000 nM
CN1C(=O)c2c([nH]c(-c3ccnc(NC(=O)C(CC(F)F)c4ccc(F)cc4)c3)c2-c2ccccc2)CC12CC2 (racemic) [Example 80, 4,4-difluoro-2-(4-fluorophenyl)-N-[4-(5′-methyl-4′-oxo-3′-phenyl-1′,4′,5′,7′-tetrahydrospiro-[cyclopropane-1,6′-pyrrolo[3,2-c]pyridin]-2′-yl)pyridin-2-yl]butanamide] | 4.7 nM | 5.1 nM | > 20000 nM
CN1C(=O)c2c([nH]c(-c3ccnc(NC(=O)C(CC(F)F)c4ccc(F)cc4)c3)c2-c2ccc(F)cc2)CC12CC2 (racemic) [Example 81, 4,4-difluoro-2-(4-fluorophenyl)-N-{4-[3′-(4-fluorophenyl)-5′-methyl-4′-oxo-1′,4′,5′,7′-tetrahydro-spiro[cyclopropane-1,6′-pyrrolo[3,2-c]pyridin]-2′-yl]pyridin-2-yl}butanamide] | 4.6 nM | 4.3 nM | > 20000 nM
Cc1cccc(-c2c(-c3ccnc(NC(=O)C(C)c4ccc(F)cc4)c3)[nH]c3c2C(=O)NC(C)(C)C3)c1 (racemic) [Example 88, N-{4-[6,6-dimethyl-3-(3-methylphenyl)-4-oxo-4,5,6,7-tetrahydro-1H-pyrrolo[3,2-c]pyridin-2-yl]pyridin-2-yl}-2-(4-fluorophenyl)propanamide] | 8.6 nM | 11 nM | > 20000 nM
CC1CN(C)C(=O)c2c1[nH]c(-c1ccnc(NC(=O)C(CC(F)F)c3ccc(F)cc3)c1)c2-c1ccc(F)cc1 (stereo not drawn) [Example 33, 4,4-difluoro-2-(4-fluorophenyl)-N-{4-[3-(4-fluorophenyl)-5,7-dimethyl-4-oxo-4,5,6,7-tetrahydro-1H-pyrrolo[3,2-c]pyridin-2-yl]pyridin-2-yl}butanamide] | 4.3 nM | 4.3 nM | –
CC1CN(C)C(=O)c2c1[nH]c(-c1ccnc(NC(=O)C(C)c3ccc(F)cc3)c1)c2-c1ccccc1 (stereo not drawn) [Example 37, N-{4-[5,7-dimethyl-4-oxo-3-phenyl-4,5,6,7-tetrahydro-1H-pyrrolo[3,2-c]pyridin-2-yl]pyridin-2-yl}-2-(4-fluorophenyl)propanamide] | 3.1 nM | 4.1 nM | –
CC1CN(C)C(=O)c2c1[nH]c(-c1ccnc(NC(=O)C(CC(F)F)c3ccc(F)cc3)c1)c2-c1ccccc1 (stereo not drawn) [Example 39, N-{4-[5,7-dimethyl-4-oxo-3-phenyl-4,5,6,7-tetrahydro-1H-pyrrolo[3,2-c]pyridin-2-yl]pyridin-2-yl}-4,4-difluoro-2-(4-fluorophenyl)butanamide] | 3 nM | 3.7 nM | –
CC1c2[nH]c(-c3ccnc(NC(=O)C(CC(F)F)c4ccc(F)cc4)c3)c(-c3ccccc3)c2C(=O)N(C)C1C (stereo not drawn) [Example 41, 4,4-difluoro-2-(4-fluorophenyl)-N-{4-[5,6,7-trimethyl-4-oxo-3-phenyl-4,5,6,7-tetrahydro-1H-pyrrolo[3,2-c]pyridin-2-yl]pyridin-2-yl}butanamide] | 5.7 nM | 6.1 nM | –
CC1(C)CNC(=O)c2c1[nH]c(-c1ccnc(NC(=O)Cc3ccc(F)cc3)c1)c2-c1ccccc1 [Example 42, N-[4-(7,7-dimethyl-4-oxo-3-phenyl-4,5,6,7-tetrahydro-1H-pyrrolo[3,2-c]pyridin-2-yl)pyridin-2-yl]-2-(4-fluorophenyl)acetamide] | 1.2 nM | 2.1 nM | –
Cn1cc(CC2CC2)c2[nH]c(-c3ccnc(NC(=O)Cc4ccc(F)cc4)c3)c(-c3ccccc3)c2c1=O [Example 56, N-{4-[7-(cyclopropylmethyl)-5-methyl-4-oxo-3-phenyl-4,5-dihydro-1H-pyrrolo[3,2-c]pyridin-2-yl]pyridin-2-yl}-2-(4-fluorophenyl)acetamide] | 4.4 nM | 4.8 nM | –
CC(C(=O)Nc1cc(-c2[nH]c3c(c2-c2ccccc2)C(=O)N(C)CC3CC2CC2)ccn1)c1ccc(F)cc1 (stereo not drawn) [Example 57, N-{4-[7-(cyclopropylmethyl)-5-methyl-4-oxo-3-phenyl-4,5,6,7-tetrahydro-1H-pyrrolo[3,2-c]pyridin-2-yl]pyridin-2-yl}-2-(4-fluorophenyl)propanamide] | 4.5 nM | 2.9 nM | –
CN1CC(CC2CC2)c2[nH]c(-c3ccnc(NC(=O)C(CC(F)F)c4ccc(F)cc4)c3)c(-c3ccccc3)c2C1=O (stereo not drawn) [Example 59, N-{4-[7-(cyclopropylmethyl)-5-methyl-4-oxo-3-phenyl-4,5,6,7-tetrahydro-1H-pyrrolo[3,2-c]pyridin-2-yl]pyridin-2-yl}-4,4-difluoro-2-(4-fluorophenyl)butanamide] | 4.9 nM | 3.6 nM | –
CC(C(=O)Nc1cc(-c2[nH]c3c(c2-c2ccc(F)cc2)C(=O)N(C)CC3CC2CC2)ccn1)c1ccc(F)cc1 (stereo not drawn) [Example 62, N-{4-[7-(cyclopropylmethyl)-3-(4-fluorophenyl)-5-methyl-4-oxo-4,5,6,7-tetrahydro-1H-pyrrolo[3,2-c]pyridin-2-yl]pyridin-2-yl}-2-(4-fluorophenyl)propanamide] | 7.6 nM | 4 nM | –
